The results in this text go back to ChEMBL document CHEMBL2073891, “Interaction of digoxin with antihypertensive drugs via MDR1” (Life Sci, 2002).

Each structure is given as a SMILES string.

Type in all cases: functional, cell-based
Holding throughout (conditions): pig, llc-pk1, 50 µM

Data set [1] concerns the target T1, ATP-dependent translocase ABCB1 (Homo sapiens, UniProt P08183). The data set is described as follows: TP_TRANSPORTER: inhibition of Digoxin transepithelial transport (basal to apical)(Digoxin: 0.1 uM, Atenolol: 50 uM) in MDR1-expressing LLC-PK1 cells.
Data set [2] concerns the target T1, ATP-dependent translocase ABCB1. The experiment in a line: TP_TRANSPORTER: inhibition of Digoxin transepithelial transport (basal to apical)(Digoxin: 0.1 uM, Candesartan cilexetil: 50 uM) in MDR1-expressing LLC-PK1 cells.
For data set [3] the target is unchanged. The data set is described as follows: TP_TRANSPORTER: inhibition of Digoxin transepithelial transport (basal to apical)(Digoxin: 0.1 uM, Candesartan: 50 uM) in MDR1-expressing LLC-PK1 cells.
For data set [4] the target is unchanged. The data set is described as follows: TP_TRANSPORTER: inhibition of Digoxin transepithelial transport (basal to apical)(Digoxin: 0.1 uM, Captopril: 50 uM) in MDR1-expressing LLC-PK1 cells.
Data set [5] shares this target. The experiment in a line: TP_TRANSPORTER: inhibition of Digoxin transepithelial transport (basal to apical)(Digoxin: 0.1 uM, Carvedilol: 50 uM) in MDR1-expressing LLC-PK1 cells.
Data set [6] has the same target. The data set is described as follows: TP_TRANSPORTER: inhibition of Digoxin transepithelial transport (basal to apical)(Digoxin: 0.1 uM, Cilazaprilat: 50 uM) in MDR1-expressing LLC-PK1 cells.
The target is the same in data set [7]. The data set is described as follows: TP_TRANSPORTER: inhibition of Digoxin transepithelial transport (basal to apical)(Digoxin: 0.1 uM, Cilazapril: 50 uM) in MDR1-expressing LLC-PK1 cells.
Data set [8] shares this target. The data set is described as follows: TP_TRANSPORTER: inhibition of Digoxin transepithelial transport (basal to apical)(Digoxin: 0.1 uM, Delapril: 50 uM) in MDR1-expressing LLC-PK1 cells.
Data set [9] shares this target. The experiment in a line: TP_TRANSPORTER: inhibition of Digoxin transepithelial transport (basal to apical)(Digoxin: 0.1 uM, Doxazosin: 50 uM) in MDR1-expressing LLC-PK1 cells.
Data set [10] has the same target. The experiment in a line: TP_TRANSPORTER: inhibition of Digoxin transepithelial transport (basal to apical)(Digoxin: 0.1 uM, Enalapril: 50 uM) in MDR1-expressing LLC-PK1 cells.
The target is the same in data set [11]. The experiment in a line: TP_TRANSPORTER: inhibition of Digoxin transepithelial transport (basal to apical) (Digoxin: 0.1 uM, Lisinopril: 50 uM) in MDR1-expressing LLC-PK1 cells.
Data set [12] has the same target. The data set is described as follows: TP_TRANSPORTER: inhibition of Digoxin transepithelial transport (basal to apical) (Digoxin: 0.1 uM, Losartan: 50 uM) in MDR1-expressing LLC-PK1 cells.
The target is the same in data set [13]. The experiment in a line: TP_TRANSPORTER: inhibition of Digoxin transepithelial transport (basal to apical)(Digoxin: 0.1 uM, Metprolol: 50 uM) in MDR1-expressing LLC-PK1 cells.
Data set [14] shares this target. The data set is described as follows: TP_TRANSPORTER: inhibition of Digoxin transepithelial transport (basal to apical) (Digoxin: 0.1 uM, Perindoprilat: 50 uM) in MDR1-expressing LLC-PK1 cells.
Data set [15] has the same target. The experiment in a line: TP_TRANSPORTER: inhibition of Digoxin transepithelial transport (basal to apical) (Digoxin: 0.1 uM, Perindopril: 50 uM) in MDR1-expressing LLC-PK1 cells.
Data set [16] has the same target. The data set is described as follows: TP_TRANSPORTER: inhibition of Digoxin transepithelial transport (basal to apical)(Digoxin: 0.1 uM, Temocaprilat: 50 uM) in MDR1-expressing LLC-PK1 cells.
For data set [17] the target is unchanged. The data set is described as follows: TP_TRANSPORTER: inhibition of Digoxin transepithelial transport (basal to apical)(Digoxin: 0.1 uM, Temocapril: 50 uM) in MDR1-expressing LLC-PK1 cells.

T1 sequence (P08183 whole entry): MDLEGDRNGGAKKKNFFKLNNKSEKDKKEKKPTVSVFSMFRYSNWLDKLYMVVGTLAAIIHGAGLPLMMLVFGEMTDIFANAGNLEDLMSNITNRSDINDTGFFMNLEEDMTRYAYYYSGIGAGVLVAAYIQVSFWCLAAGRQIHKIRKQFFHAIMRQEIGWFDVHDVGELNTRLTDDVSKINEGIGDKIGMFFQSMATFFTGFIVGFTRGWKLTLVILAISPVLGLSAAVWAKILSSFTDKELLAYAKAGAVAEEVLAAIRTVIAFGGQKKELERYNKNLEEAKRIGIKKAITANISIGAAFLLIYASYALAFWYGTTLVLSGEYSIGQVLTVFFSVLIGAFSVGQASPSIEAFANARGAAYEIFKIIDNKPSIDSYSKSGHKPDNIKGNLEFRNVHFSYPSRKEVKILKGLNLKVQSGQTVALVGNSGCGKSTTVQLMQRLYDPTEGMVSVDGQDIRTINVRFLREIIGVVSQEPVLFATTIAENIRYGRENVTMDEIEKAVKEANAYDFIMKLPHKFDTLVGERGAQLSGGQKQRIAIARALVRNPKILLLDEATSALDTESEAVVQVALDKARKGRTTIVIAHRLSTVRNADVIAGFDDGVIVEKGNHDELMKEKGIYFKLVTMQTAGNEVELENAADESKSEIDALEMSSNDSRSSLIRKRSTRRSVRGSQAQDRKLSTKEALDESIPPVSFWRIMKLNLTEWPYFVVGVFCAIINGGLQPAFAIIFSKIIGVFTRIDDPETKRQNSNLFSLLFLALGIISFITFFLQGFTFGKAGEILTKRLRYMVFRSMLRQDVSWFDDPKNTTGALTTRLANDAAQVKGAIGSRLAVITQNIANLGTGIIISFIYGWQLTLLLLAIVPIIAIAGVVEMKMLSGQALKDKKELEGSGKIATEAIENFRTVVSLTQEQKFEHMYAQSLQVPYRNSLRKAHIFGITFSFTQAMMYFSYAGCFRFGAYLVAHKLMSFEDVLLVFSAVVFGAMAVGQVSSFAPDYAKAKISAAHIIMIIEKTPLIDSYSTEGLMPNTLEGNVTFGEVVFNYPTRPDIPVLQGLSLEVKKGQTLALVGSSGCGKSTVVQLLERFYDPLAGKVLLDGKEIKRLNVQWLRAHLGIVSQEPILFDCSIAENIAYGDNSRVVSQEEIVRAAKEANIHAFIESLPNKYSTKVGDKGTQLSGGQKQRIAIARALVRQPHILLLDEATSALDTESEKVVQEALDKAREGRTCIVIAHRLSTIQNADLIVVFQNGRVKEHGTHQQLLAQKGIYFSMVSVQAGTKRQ

Take `CC(C)NCC(O)COc1ccc(CC(N)=O)cc1` (configuration not stated) [ATENOLOL]: the Activity entry in [1] was “is not an inhibitor [-]”. With `CCOc1nc2cccc(C(=O)OC(C)OC(=O)OC3CCCCC3)c2n1Cc1ccc(-c2ccccc2-c2nnn[nH]2)cc1` (configuration not stated) [CANDESARTAN CILEXETIL], the Activity entry in data set [2] is “is not an inhibitor [-]”.

Take `CCOc1nc2cccc(C(=O)O)c2n1Cc1ccc(-c2ccccc2-c2nnn[nH]2)cc1` [CANDESARTAN]: the Activity entry in [3] is “is not an inhibitor [-]”. As for `C[C@H](CS)C(=O)N1CCC[C@H]1C(=O)O` [CAPTOPRIL], the Activity entry in data set [4] is “is not an inhibitor [-]”. Turning to `COc1ccccc1OCCNCC(O)COc1cccc2[nH]c3ccccc3c12` (configuration not stated) [CARVEDILOL], in data set [5], the Activity entry is “inhibitor [+]”. `O=C(O)[C@H](CCc1ccccc1)N[C@H]1CCCN2CCC[C@@H](C(=O)O)N2C1=O` [CILAZAPRILAT]: the Activity entry in [6] was “is not an inhibitor [-]”.

Take `CCOC(=O)[C@H](CCc1ccccc1)N[C@H]1CCCN2CCC[C@@H](C(=O)O)N2C1=O` [CILAZAPRIL]: the Activity entry in data set [7] is “is not an inhibitor [-]”.

For the compound `CCOC(=O)[C@H](CCc1ccccc1)N[C@@H](C)C(=O)N(CC(=O)O)C1Cc2ccccc2C1` [DELAPRIL], the Activity entry in data set [8] was “is not an inhibitor [-]”. For `COc1cc2nc(N3CCN(C(=O)C4COc5ccccc5O4)CC3)nc(N)c2cc1OC` (configuration not stated) [DOXAZOSIN], the Activity entry in data set [9] is “inhibitor [+]”. Regarding `CCOC(=O)[C@H](CCc1ccccc1)N[C@@H](C)C(=O)N1CCC[C@H]1C(=O)O` [ENALAPRIL], the Activity entry in [10] was “is not an inhibitor [-]”.

As to `NCCCC[C@H](N[C@@H](CCc1ccccc1)C(=O)O)C(=O)N1CCC[C@H]1C(=O)O` [LISINOPRIL ANHYDROUS], the Activity entry in data set [11] is “is not an inhibitor [-]”.

`CCCCc1nc(Cl)c(CO)n1Cc1ccc(-c2ccccc2-c2nn[nH]n2)cc1` [LOSARTAN]: the Activity entry in [12] was “is not an inhibitor [-]”. Consider `COCCc1ccc(OCC(O)CNC(C)C)cc1` (configuration not stated) [METOPROLOL], for which the Activity result in data set [13] is “is not an inhibitor [-]”.

Take `CCC[C@H](N[C@@H](C)C(=O)N1[C@H](C(=O)O)C[C@@H]2CCCC[C@@H]21)C(=O)O` [PERINDOPRILAT]: in data set [14], the Activity entry is “is not an inhibitor [-]”. As to `CCC[C@H](N[C@@H](C)C(=O)N1[C@H](C(=O)O)C[C@@H]2CCCC[C@@H]21)C(=O)OCC` [PERINDOPRIL], the Activity entry in data set [15] was “is not an inhibitor [-]”. Take `O=C(O)CN1C[C@@H](c2cccs2)SC[C@H](N[C@@H](CCc2ccccc2)C(=O)O)C1=O` [TEMOCAPRILAT]: the Activity entry in data set [16] is “is not an inhibitor [-]”. In the case of `CCOC(=O)[C@H](CCc1ccccc1)N[C@H]1CS[C@H](c2cccs2)CN(CC(=O)O)C1=O` [TEMOCAPRIL], in [17], the Activity entry was “is not an inhibitor [-]”.
